Measured values from patent US10681909B2, “Herbicidal triazoles” (FMC Corporation, priority 2014, dated 2020).

Legend:
galium = test: Test C postemergence; type: in vivo, Galium aparine
From the text: (§1) Seeds of plant species selected from blackgrass (Alopecurus myosuroides), ryegrass, Italian (Italian ryegrass, Lolium multiflorum), wheat (winter wheat, Triticum aestivum), galium (catchweed bedstraw, Galium aparine), corn (Zea mays), crabgrass, large (large crabgrass, Digitaria sanguinalis), foxtail, giant, (giant foxtail, Setaria faberii), johnsongrass (Sorghum halepense), lambsquarters (Chenopodium album), morningglory (Ipomoea coccinea), nutsedge, yellow (yellow nutsedge, Cyperus esculentus), pigweed (Amaranthus retroflexus), ragweed (common ragweed, Ambrosia elatior), soybean (Glycine max), barnyardgrass (Echinochloa crus-galli), oilseed rape (Brassica napus), waterhemp (common waterhemp, Amaranthus rudis), and velvetleaf (Abutilon theophrasti) were planted into a blend of loam soil and sand and treated preemergence with test chemicals formulated in a non-phytotoxic solvent mixture which included a surfactant. At the same time, plants selected from these crop and weed species and also chickweed (common chickweed, Stellaria media), oat, wild (wild oat, Avena fatua), and kochia (Kochia scoparia), were planted in pots containing Sunshine Redi-Earth® planting medium comprising spaghnum peat moss, vermiculite, starter nutrients and dolomitic limestone and treated with postemergence applications of test chemicals formulated in the same manner. Plants ranged in height from 2 to 18 cm (1- to 4-leaf stage) for postemergence treatments. […] A dash (-) response means no test result.

rice = test: Test B flooded paddy test; type: in vivo, Oryza sativa; conditions: 250 g ai/ha, applied to paddy water at 2-leaf stage, visual rating after 13 to 15 d, scale 0 (no effect) to 100 (complete control)
Outline: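 Pots were flooded to 3 cm above the soil at treatment, and compounds were applied directly into the paddy water. That depth was held throughout. After 13 to 15 d in a greenhouse, plants were rated visually against untreated controls.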

pigweed [1] = test: Test A preemergence; type: in vivo, Amaranthus retroflexus; conditions: 0 to 100 scale (0 no effect, 100 complete control)
Outline: (§2)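 Test chemicals, formulated in a surfactant-containing non-phytotoxic solvent mixture, are applied either as a directed soil spray to newly planted seeds or as a postemergence application to plants at the one- to two-leaf stage (2–10 cm). All plants grow in a loam soil and sand blend.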

lambsquarters = test: Test C postemergence; type: in vivo, Chenopodium album
From the text: as §1

foxtail, giant = test: Test A preemergence; type: in vivo, Setaria faberii; conditions: 0 to 100 scale (0 no effect, 100 complete control)
Outline: as §2

chickweed = test: Test C postemergence; type: in vivo, Stellaria media
From the text: as §1

oat, wild = test: Test C postemergence; type: in vivo, Avena fatua
From the text: as §1

pigweed [2] = test: Test C postemergence; type: in vivo, Amaranthus retroflexus
From the text: as §1

johnsongrass = test: Test C postemergence; type: in vivo, Sorghum halepense
From the text: as §1

soybean = test: Test C postemergence; type: in vivo, Glycine max
From the text: as §1

blackgrass = test: Test C postemergence; type: in vivo, Alopecurus myosuroides
From the text: as §1

wheat (winter wheat) = test: Test C postemergence; type: in vivo, Triticum aestivum
From the text: as §1

CCOc1nc(-c2ccc(Cl)cc2)nn1Cc1ccnc(C(F)(F)F)c1 [Compound 26]
Plant response rating (scale of 0 to 100 where 0 is no effect and 100 is complete control) (galium; 16 g ai/ha): 80 | Plant response rating (scale of 0 to 100 where 0 is no effect and 100 is complete control) (galium; 31 g ai/ha): 90 | Plant response rating (scale of 0 to 100 where 0 is no effect and 100 is complete control) (galium; 62 g ai/ha): 90 | Plant response rating (scale of 0 to 100 where 0 is no effect and 100 is complete control) (galium; 125 g ai/ha): 90 | Plant response rating, Rice, Flood (rice): 45 | Plant response rating, Pigweed (pigweed [1]; 31 g ai/ha): 90 | Plant response rating, Pigweed (pigweed [1]; 125 g ai/ha): 100 | Plant response rating (scale of 0 to 100 where 0 is no effect and 100 is complete control) (lambsquarters; 16 g ai/ha): 100 | Plant response rating (scale of 0 to 100 where 0 is no effect and 100 is complete control) (lambsquarters; 31 g ai/ha): 100 | Plant response rating (scale of 0 to 100 where 0 is no effect and 100 is complete control) (lambsquarters; 62 g ai/ha): 100 | Plant response rating (scale of 0 to 100 where 0 is no effect and 100 is complete control) (lambsquarters; 125 g ai/ha): 100 | Plant response rating, Foxtail, Giant (foxtail, giant; 31 g ai/ha): 100 | Plant response rating, Foxtail, Giant (foxtail, giant; 125 g ai/ha): 100 | Plant response rating (scale of 0 to 100 where 0 is no effect and 100 is complete control) (chickweed; 16 g ai/ha): 90 | Plant response rating (scale of 0 to 100 where 0 is no effect and 100 is complete control) (chickweed; 31 g ai/ha): 95 | Plant response rating (scale of 0 to 100 where 0 is no effect and 100 is complete control) (chickweed; 62 g ai/ha): 95 | Plant response rating (scale of 0 to 100 where 0 is no effect and 100 is complete control) (chickweed; 125 g ai/ha): 95 | Plant response rating (scale of 0 to 100 where 0 is no effect and 100 is complete control) (oat, wild; 16 g ai/ha): 35 | Plant response rating (scale of 0 to 100 where 0 is no effect and 100 is complete control) (oat, wild; 31 g ai/ha): 35 | Plant response rating (scale of 0 to 100 where 0 is no effect and 100 is complete control) (oat, wild; 62 g ai/ha): 40 | Plant response rating (scale of 0 to 100 where 0 is no effect and 100 is complete control) (oat, wild; 125 g ai/ha): 45 | Plant response rating (scale of 0 to 100 where 0 is no effect and 100 is complete control) (pigweed [2]; 16 g ai/ha): 95 | Plant response rating (scale of 0 to 100 where 0 is no effect and 100 is complete control) (pigweed [2]; 31 g ai/ha): 95 | Plant response rating (scale of 0 to 100 where 0 is no effect and 100 is complete control) (pigweed [2]; 62 g ai/ha): 98 | Plant response rating (scale of 0 to 100 where 0 is no effect and 100 is complete control) (pigweed [2]; 125 g ai/ha): 98 | Plant response rating (scale of 0 to 100 where 0 is no effect and 100 is complete control) (johnsongrass; 16 g ai/ha): 25 | Plant response rating (scale of 0 to 100 where 0 is no effect and 100 is complete control) (johnsongrass; 31 g ai/ha): 20 | Plant response rating (scale of 0 to 100 where 0 is no effect and 100 is complete control) (johnsongrass; 62 g ai/ha): 35 | Plant response rating (scale of 0 to 100 where 0 is no effect and 100 is complete control) (johnsongrass; 125 g ai/ha): 55 | Plant response rating (scale of 0 to 100 where 0 is no effect and 100 is complete control) (soybean; 16 g ai/ha): 35 | Plant response rating (scale of 0 to 100 where 0 is no effect and 100 is complete control) (soybean; 31 g ai/ha): 70 | Plant response rating (scale of 0 to 100 where 0 is no effect and 100 is complete control) (soybean; 62 g ai/ha): 65 | Plant response rating (scale of 0 to 100 where 0 is no effect and 100 is complete control) (soybean; 125 g ai/ha): 70 | Plant response rating (scale of 0 to 100 where 0 is no effect and 100 is complete control) (blackgrass; 16 g ai/ha): 15 | Plant response rating (scale of 0 to 100 where 0 is no effect and 100 is complete control) (blackgrass; 31 g ai/ha): 35 | Plant response rating (scale of 0 to 100 where 0 is no effect and 100 is complete control) (blackgrass; 62 g ai/ha): 40 | Plant response rating (scale of 0 to 100 where 0 is no effect and 100 is complete control) (blackgrass; 125 g ai/ha): 40 | Plant response rating (scale of 0 to 100 where 0 is no effect and 100 is complete control) (wheat (winter wheat); 16 g ai/ha): 5 | Plant response rating (scale of 0 to 100 where 0 is no effect and 100 is complete control) (wheat (winter wheat); 31 g ai/ha): 10 | Plant response rating (scale of 0 to 100 where 0 is no effect and 100 is complete control) (wheat (winter wheat); 62 g ai/ha): 10 | Plant response rating (scale of 0 to 100 where 0 is no effect and 100 is complete control) (wheat (winter wheat); 125 g ai/ha): 10

COc1nc(-c2ccccc2)nn1Cc1ccnc(C(F)(F)F)c1 [Compound 32]
Plant response rating (scale of 0 to 100 where 0 is no effect and 100 is complete control) (galium; 31 g ai/ha): 20 | Plant response rating (scale of 0 to 100 where 0 is no effect and 100 is complete control) (galium; 62 g ai/ha): 45 | Plant response rating (scale of 0 to 100 where 0 is no effect and 100 is complete control) (galium; 125 g ai/ha): 60 | Plant response rating (scale of 0 to 100 where 0 is no effect and 100 is complete control) (galium; 250 g ai/ha): 75 | Plant response rating, Rice, Flood (rice): 0 | Plant response rating, Pigweed (pigweed [1]; 125 g ai/ha): 100 | Plant response rating, Pigweed (pigweed [1]; 500 g ai/ha, approx. 10 d): 100 | Plant response rating (scale of 0 to 100 where 0 is no effect and 100 is complete control) (lambsquarters; 31 g ai/ha): 100 | Plant response rating (scale of 0 to 100 where 0 is no effect and 100 is complete control) (lambsquarters; 62 g ai/ha): 95 | Plant response rating (scale of 0 to 100 where 0 is no effect and 100 is complete control) (lambsquarters; 125 g ai/ha): 100 | Plant response rating (scale of 0 to 100 where 0 is no effect and 100 is complete control) (lambsquarters; 250 g ai/ha): 98 | Plant response rating, Foxtail, Giant (foxtail, giant; 125 g ai/ha): 90 | Plant response rating, Foxtail, Giant (foxtail, giant; 500 g ai/ha, approx. 10 d): 100 | Plant response rating (scale of 0 to 100 where 0 is no effect and 100 is complete control) (chickweed; 31 g ai/ha): 10 | Plant response rating (scale of 0 to 100 where 0 is no effect and 100 is complete control) (chickweed; 62 g ai/ha): 10 | Plant response rating (scale of 0 to 100 where 0 is no effect and 100 is complete control) (chickweed; 125 g ai/ha): 55 | Plant response rating (scale of 0 to 100 where 0 is no effect and 100 is complete control) (chickweed; 250 g ai/ha): 50 | Plant response rating (scale of 0 to 100 where 0 is no effect and 100 is complete control) (oat, wild; 31 g ai/ha): 0 | Plant response rating (scale of 0 to 100 where 0 is no effect and 100 is complete control) (oat, wild; 62 g ai/ha): 5 | Plant response rating (scale of 0 to 100 where 0 is no effect and 100 is complete control) (oat, wild; 125 g ai/ha): 5 | Plant response rating (scale of 0 to 100 where 0 is no effect and 100 is complete control) (oat, wild; 250 g ai/ha): 10 | Plant response rating (scale of 0 to 100 where 0 is no effect and 100 is complete control) (pigweed [2]; 31 g ai/ha): 98 | Plant response rating (scale of 0 to 100 where 0 is no effect and 100 is complete control) (pigweed [2]; 62 g ai/ha): 95 | Plant response rating (scale of 0 to 100 where 0 is no effect and 100 is complete control) (pigweed [2]; 125 g ai/ha): 98 | Plant response rating (scale of 0 to 100 where 0 is no effect and 100 is complete control) (pigweed [2]; 250 g ai/ha): 98 | Plant response rating (scale of 0 to 100 where 0 is no effect and 100 is complete control) (johnsongrass; 31 g ai/ha): 10 | Plant response rating (scale of 0 to 100 where 0 is no effect and 100 is complete control) (johnsongrass; 62 g ai/ha): 10 | Plant response rating (scale of 0 to 100 where 0 is no effect and 100 is complete control) (johnsongrass; 125 g ai/ha): 10 | Plant response rating (scale of 0 to 100 where 0 is no effect and 100 is complete control) (johnsongrass; 250 g ai/ha): 10 | Plant response rating (scale of 0 to 100 where 0 is no effect and 100 is complete control) (soybean; 31 g ai/ha): 20 | Plant response rating (scale of 0 to 100 where 0 is no effect and 100 is complete control) (soybean; 62 g ai/ha): 25 | Plant response rating (scale of 0 to 100 where 0 is no effect and 100 is complete control) (soybean; 125 g ai/ha): 30 | Plant response rating (scale of 0 to 100 where 0 is no effect and 100 is complete control) (soybean; 250 g ai/ha): 35 | Plant response rating (scale of 0 to 100 where 0 is no effect and 100 is complete control) (blackgrass; 31 g ai/ha): 5 | Plant response rating (scale of 0 to 100 where 0 is no effect and 100 is complete control) (blackgrass; 62 g ai/ha): 5 | Plant response rating (scale of 0 to 100 where 0 is no effect and 100 is complete control) (blackgrass; 125 g ai/ha): 5 | Plant response rating (scale of 0 to 100 where 0 is no effect and 100 is complete control) (blackgrass; 250 g ai/ha): 15 | Plant response rating (scale of 0 to 100 where 0 is no effect and 100 is complete control) (wheat (winter wheat); 31 g ai/ha): 0 | Plant response rating (scale of 0 to 100 where 0 is no effect and 100 is complete control) (wheat (winter wheat); 62 g ai/ha): 0 | Plant response rating (scale of 0 to 100 where 0 is no effect and 100 is complete control) (wheat (winter wheat); 125 g ai/ha): 0 | Plant response rating (scale of 0 to 100 where 0 is no effect and 100 is complete control) (wheat (winter wheat); 250 g ai/ha): 0
